What was measured:
E. coli IMPDH enzyme = E. coli IMPDH enzyme (Escherichia coli, UniProt P0ADG7); experiment: IMPDH Activity Inhibition Assay; assay type: biochemical; settings: for activity at 25 µM: percent remaining activity of E. coli IMPDH enzyme at 25 μM inhibitor (I) and 14 nM enzyme (E); for activity at 10 µM: percent remaining activity of E. coli IMPDH enzyme at 10 μM inhibitor (I) and 55 nM enzyme (E)
Description: IMP dehydrogenase activity was assayed according to the method reported by Hedstrom. [Hedstrom, L. et al., Biochemistry, 39, pp. 9804-9810 (2000), the disclosure of which is herein incorporated by reference]. Table 1 below lists the percent remaining activity of E. coli IMPDH enzyme (E) at either 25 μM inhibitor (I) and 14 nM enzyme (E) or 10 μM inhibitor (I) and 55 nM enzyme (E). “ND” means no data.

bacterial IMPDH = settings: Hedstrom et al., Curr. Med. Chem. 1999; cited from earlier work

Chain of E. coli IMPDH enzyme (P0ADG7 whole entry): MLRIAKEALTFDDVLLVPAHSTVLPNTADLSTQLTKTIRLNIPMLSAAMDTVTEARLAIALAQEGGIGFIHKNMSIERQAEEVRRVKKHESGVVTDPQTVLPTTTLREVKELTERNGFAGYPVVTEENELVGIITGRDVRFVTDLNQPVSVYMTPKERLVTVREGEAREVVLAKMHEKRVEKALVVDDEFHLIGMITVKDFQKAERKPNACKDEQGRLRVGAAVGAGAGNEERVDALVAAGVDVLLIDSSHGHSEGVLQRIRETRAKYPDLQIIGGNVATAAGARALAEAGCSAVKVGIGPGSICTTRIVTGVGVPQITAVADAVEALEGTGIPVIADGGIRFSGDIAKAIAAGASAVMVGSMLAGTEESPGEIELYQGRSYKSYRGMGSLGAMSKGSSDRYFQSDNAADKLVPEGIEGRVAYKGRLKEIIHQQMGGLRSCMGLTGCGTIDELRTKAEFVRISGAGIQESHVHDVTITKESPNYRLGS

Structure (SMILES): O=C(Nc1nc2ccccc2[nH]1)c1ccc2cc(C(=O)Nc3nc4ccccc4[nH]3)ccc2c1 [Compound 6]
- activity at 25 µM (E. coli IMPDH enzyme): 90%

Structure (SMILES): CCOc1cccc2sc(NC(=O)c3cc4ccccc4cc3OC)nc12 [Compound 7]
- activity at 25 µM (E. coli IMPDH enzyme): 76%

Structure (SMILES): Cc1cccc(NC(=O)c2ccc3cc(C(=O)Nc4cccc(C)n4)ccc3c2)n1 [Compound 8]
- activity at 10 µM (E. coli IMPDH enzyme): 87%

Structure (SMILES): COc1cc2ccccc2cc1C(=O)Nc1nc(-c2c(OC)ccc3ccccc23)cs1 [Compound 9]
- activity at 10 µM (E. coli IMPDH enzyme): 100%

Structure (SMILES): COc1ccc(-c2csc(NC(=O)c3cc4ccccc4cc3OC)n2)cc1OC [Compound 10]
- activity at 10 µM (E. coli IMPDH enzyme): 73%

Structure (SMILES): O=C(Nc1nccs1)c1ccc2cc(C(=O)Nc3nccs3)ccc2c1 [Compound 11]
- activity at 10 µM (E. coli IMPDH enzyme): 97%

Structure (SMILES): O=C(Nc1nncs1)c1ccc2cc(C(=O)Nc3nncs3)ccc2c1 [Compound 12]
- activity at 10 µM (E. coli IMPDH enzyme): 100%

Structure (SMILES): COc1c(C)c2c(c(O)c1C/C=C(\C)CCC(=O)O)C(=O)OC2 [mycophenolic acid]
- fold less potent against bacterial IMPDH versus mammalian IMPDH (bacterial IMPDH): > 1000 fold
